Assay results reported in US20250250230A1, “HETEROCYCLIC COMPOUND” (TAKEDA PHARMACEUTICAL COMPANY LIMITED, priority 2022, published 2025).

target: T1, human orexin type 2 receptor (Homo sapiens, UniProt O43614); assay: Measurement of orexin type 2 receptor agonist activity (calcium fluorescence, Fluo-4 AM, FDSS); assay type: cell-based; settings: test compound 3 μM; CHO cells expressing human OX2 receptor; DMSO = 0%, orexin A (human) = 100%
T1 construct: expressed in transfected cells
T1 sequence (O43614 1-444): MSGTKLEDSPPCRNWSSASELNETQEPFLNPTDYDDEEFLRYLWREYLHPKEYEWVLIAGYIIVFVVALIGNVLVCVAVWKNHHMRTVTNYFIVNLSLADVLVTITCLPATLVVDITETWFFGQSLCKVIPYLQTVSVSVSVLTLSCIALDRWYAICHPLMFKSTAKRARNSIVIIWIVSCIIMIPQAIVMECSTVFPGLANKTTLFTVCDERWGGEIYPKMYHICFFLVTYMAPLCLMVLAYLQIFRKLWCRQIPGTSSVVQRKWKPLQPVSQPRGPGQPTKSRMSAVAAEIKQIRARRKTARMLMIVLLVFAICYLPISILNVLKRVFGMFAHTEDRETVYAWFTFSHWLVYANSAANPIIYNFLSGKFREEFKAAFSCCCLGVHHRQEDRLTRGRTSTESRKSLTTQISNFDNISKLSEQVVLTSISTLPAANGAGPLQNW
In short: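 CHO-K1 cells stably expressing human OX2R were loaded with Fluo-4 AM (30 min 37 °C, 30 min RT) in HEPES-buffered HBSS with 0.1% BSA and probenecid. Calcium fluorescence was followed on FDSS for 2 min after compound addition; activity normalised to DMSO (0%) and 10 nM orexin A (100%).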

In order of rising “OX2R agonist activity (3 μM, %)” value:
1. CS(=O)(=O)NCC1CN(C(=O)C2CC2c2ccccc2-c2c(F)cccc2F)CCC1(F)F (racemic) [Example 275, a mixture of rac-N-({(3R)-1-[(1R,2R)-2-(2′,6′-difluoro[1,1′-biphenyl]-2-yl)cyclopropane-1-carbonyl]-4,4-difluoropiperidin-3-yl}methyl)methanesulfonamide and rac-N-({(3S)-1-[(1R,2R)-2-(2′,6′-difluoro[1,1′-biphenyl]-2-yl)cyclopropane-1-carbonyl]-4,4-difluoropiperidin-3-yl}methyl)methanesulfonamide]  57%
2. CS(=O)(=O)NCC1CN(C(=O)C2CC2c2ccccc2-c2c(F)cccc2F)CC1(F)F (racemic) [Example 285, a mixture of rac-N-({(3R)-1-[(1R,2R)-2-(2′,6′-difluoro[1,1′-biphenyl]-2-yl)cyclopropane-1-carbonyl]-4,4-difluoropyrrolidin-3-yl}methyl)methanesulfonamide and rac-N-({(3S)-1-[(1R,2R)-2-(2′,6′-difluoro[1,1′-biphenyl]-2-yl)cyclopropane-1-carbonyl]-4,4-difluoropyrrolidin-3-yl}methyl)methanesulfonamide]  63%
3. CS(=O)(=O)NC1CCCCN(C(=O)C2CC2c2sccc2-c2c(F)cccc2F)C1 (racemic) [Example 233, a mixture of rac-N-[(3R)-1-{(1R,2R)-2-[3-(2,6-difluorophenyl)thiophen-2-yl]cyclopropane-1-carbonyl}azepan-3-yl]methanesulfonamide and rac-N-[(3S)-1-{(1R,2R)-2-[3-(2,6-difluorophenyl)thiophen-2-yl]cyclopropane-1-carbonyl}azepan-3-yl]methanesulfonamide]  80%
4. Cc1cc(-c2c(F)cccc2F)c(C2CC2C(=O)N2CC[C@H](NS(C)(=O)=O)C2)cn1 (mixture of isomers) [Example 268, a mixture of rac-N-[(3R)-1-{(1R,2R)-2-[4-(2,6-difluorophenyl)-6-methylpyridin-3-yl]cyclopropane-1-carbonyl}pyrrolidin-3-yl]methanesulfonamide and rac-N-[(3S)-1-{(1R,2R)-2-[4-(2,6-difluorophenyl)-6-methylpyridin-3-yl]cyclopropane-1-carbonyl}pyrrolidin-3-yl]methanesulfonamide]  80%
5. Cc1cc(-c2c(F)cccc2F)c(C2CC2C(=O)N2CCCC(NS(C)(=O)=O)CC2)cn1 (racemic) [Example 266, a mixture of rac-N-[(4R)-1-{(1R,2R)-2-[4-(2,6-difluorophenyl)-6-methylpyridin-3-yl]cyclopropane-1-carbonyl}azepan-4-yl]methanesulfonamide and rac-N-[(4S)-1-{(1R,2R)-2-[4-(2,6-difluorophenyl)-6-methylpyridin-3-yl]cyclopropane-1-carbonyl}azepan-4-yl]methanesulfonamide]  87%
6. Cc1cc(-c2c(F)cccc2F)c(C2CC2C(=O)N2CCCC(NS(C)(=O)=O)C2)cn1 (racemic) [Example 267, a mixture of rac-N-[(3R)-1-{(1R,2R)-2-[4-(2,6-difluorophenyl)-6-methylpyridin-3-yl]cyclopropane-1-carbonyl}piperidin-3-yl]methanesulfonamide and rac-N-[(3S)-1-{(1R,2R)-2-[4-(2,6-difluorophenyl)-6-methylpyridin-3-yl]cyclopropane-1-carbonyl}piperidin-3-yl]methanesulfonamide]  87%
7. CS(=O)(=O)N[C@H]1CCN(C(=O)C2(C#N)CC2c2ccccc2-c2c(F)cccc2F)C1 (mixture of isomers) [Example 316, a mixture of rac-N-{(3S)-1-[(1R,2S)-1-cyano-2-(2′,6′-difluoro[1,1′-biphenyl]-2-yl)cyclopropane-1-carbonyl]pyrrolidin-3-yl}methanesulfonamide and N-{(3S)-1-[(1S,2R)-1-cyano-2-(2′,6′-difluoro[1,1′-biphenyl]-2-yl)cyclopropane-1-carbonyl]pyrrolidin-3-yl}methanesulfonamide]  88%
8. CS(=O)(=O)NC1CCN(C(=O)C2CC2c2sccc2-c2c(F)cccc2F)C1 (racemic) [Example 235, a mixture of rac-N-[(3R)-1-{(1R,2R)-2-[3-(2,6-difluorophenyl)thiophen-2-yl]cyclopropane-1-carbonyl}pyrrolidin-3-yl]methanesulfonamide and rac-N-[(3S)-1-{(1R,2R)-2-[3-(2,6-difluorophenyl)thiophen-2-yl]cyclopropane-1-carbonyl}pyrrolidin-3-yl]methanesulfonamide]  89%
9. Cc1scc(-c2c(F)cccc2F)c1C1CC1C(=O)N1CCC(NS(C)(=O)=O)C1 (racemic) [Example 329, a mixture of rac-N-[(3R)-1-{(1R,2R)-2-[4-(2,6-difluorophenyl)-2-methylthiophen-3-yl]cyclopropane-1-carbonyl}pyrrolidin-3-yl]methanesulfonamide and rac-N-[(3S)-1-{(1R,2R)-2-[4-(2,6-difluorophenyl)-2-methylthiophen-3-yl]cyclopropane-1-carbonyl}pyrrolidin-3-yl]methanesulfonamide]  91%
10. CS(=O)(=O)N[C@H]1CCN(C(=O)C2CC2(F)c2ccccc2-c2c(F)cccc2F)C1 (single isomer, unassigned) [Example 304, N-{(3S)-1-[(1S,2S)-2-(2′,6′-difluoro [1,1′-biphenyl]-2-yl)-2-fluorocyclopropane-1-carbonyl]pyrrolidin-3-yl}methanesulfonamide, or N-{(3S)-1-[(1R,2R)-2-(2′,6′-difluoro[1,1′-biphenyl]-2-yl)-2-fluorocyclopropane-1-carbonyl]pyrrolidin-3-yl}methanesulfonamide]  93%
11. CS(=O)(=O)N[C@H]1CCCN(C(=O)C2CC2(F)c2ccccc2-c2c(F)cccc2F)C1 (single isomer, unassigned) [Example 306, N-{(3S)-1-[(1S,2S)-2-(2′,6′-difluoro [1,1′-biphenyl]-2-yl)-2-fluorocyclopropane-1-carbonyl]piperidin-3-yl}methanesulfonamide, or N-{(3S)-1-[(1R,2R)-2-(2′,6′-difluoro[1,1′-biphenyl]-2-yl)-2-fluorocyclopropane-1-carbonyl]piperidin-3-yl}methanesulfonamide]  93%
12. CS(=O)(=O)NC1CCN(C(=O)C2CC2c2cscc2-c2c(F)cccc2F)C1 (racemic) [Example 321, a mixture of rac-N-[(3R)-1-{(1R,2R)-2-[4-(2,6-difluorophenyl)thiophen-3-yl]cyclopropane-1-carbonyl}pyrrolidin-3-yl]methanesulfonamide and rac-N-[(3R)-1-{(1R,2R)-2-[4-(2,6-difluorophenyl)thiophen-3-yl]cyclopropane-1-carbonyl}pyrrolidin-3-yl]methanesulfonamide]  95%
13. CCS(=O)(=O)NC12CC1CN(C(=O)C1CC1c1ccccc1-c1c(F)cccc1F)C2 (racemic) [Example 237, a mixture of rac-N-{(1S,5R)-3-[(1R,2R)-2-(2′,6′-difluoro[1,1′-biphenyl]-2-yl)cyclopropane-1-carbonyl]-3-azabicyclo[3.1.0]hexan-1-yl}ethanesulfonamide and rac-N-{(1R,5S)-3-[(1R,2R)-2-(2′,6′-difluoro[1,1′-biphenyl]-2-yl)cyclopropane-1-carbonyl]-3-azabicyclo[3.1.0]hexan-1-yl}ethanesulfonamide]  99%
14. CS(=O)(=O)N[C@H]1CCN(C(=O)C2CC2c2c(F)cccc2-c2c(F)cccc2F)C1 (single isomer, unassigned) [Example 195, N-{(3S)-1-[(1R,2R)-2-(2′,3,6′-trifluoro[1,1′-biphenyl]-2-yl)cyclopropane-1-carbonyl]pyrrolidin-3-yl}methanesulfonamide, or N-{(3S)-1-[(1S,2S)-2-(2′,3,6′-trifluoro[1,1′-biphenyl]-2-yl)cyclopropane-1-carbonyl]pyrrolidin-3-yl}methanesulfonamide]  99%
15. CCS(=O)(=O)NC[C@@H]1CCN1C(=O)[C@@H]1C[C@@]1(F)c1ccccc1-c1c(F)cccc1F (single isomer, unassigned) [Example 351, N-({(2R)-1-[(1S,2S)-2-(2′,6′-difluoro[1,1′-biphenyl]-2-yl)-2-fluorocyclopropane-1-carbonyl]azetidin-2-yl}methyl)ethanesulfonamide, or N-({(2S)-1-[(1S,2S)-2-(2′,6′-difluoro[1,1′-biphenyl]-2-yl)-2-fluorocyclopropane-1-carbonyl]azetidin-2-yl}methyl)ethanesulfonamide]  101%
16. CS(=O)(=O)N[C@H]1CCN(C(=O)C2CC2c2ccc(F)cc2-c2c(F)cccc2F)C1 (single isomer, unassigned) [Example 200, N-{(3S)-1-[(1R,2R)-2-(2′,5,6′-trifluoro[1,1′-biphenyl]-2-yl)cyclopropane-1-carbonyl]pyrrolidin-3-yl}methanesulfonamide, or N-{(3S)-1-[(1S,2S)-2-(2′,5,6′-trifluoro[1,1′-biphenyl]-2-yl)cyclopropane-1-carbonyl]pyrrolidin-3-yl}methanesulfonamide]  103%
